Assay results taken from patent EP0370499A2, “Use of benzomorphanes in cytoprotection” (BOEHRINGER INGELHEIM KG, priority 1988, dated 1990).

Tested on: Hippocampusschnitt
Test: Hippocampal slice: epileptic discharges in magnesium-free medium (stimulation of Schaffer collaterals, extracellular recording at CA1 pyramidal cells)
Type: cell-based
Details: addition of 100 mmol, Abb. 1c
From the text: Als Testsystem für den Nachweis der zytoprotektiven Eigenschaften der Benzomorphanderivate dient der Hippocampusschnitt. Über Mikroelektroden werden die Schäfferkollaterale des sich in einer Perfusionskammer befindenden Hippocampusschnittes stimuliert und die auftretenden Summenpotentiale extrazellulär an den Pyramidenzellen der CAI-Region abgeleitet [H.L. Haas, B. Schaerer und M. Vosmansky, J. Neuroscience Meth. 1 (1979) 323].
Eine typische Stimulation in einem magnesiumhaltigem Medium ist in Abb. 1a dargestellt. - Abb. 1b zeigt multiple epileptische Entladungen in einem magnesiumfreien Medium. Diese Entladungen werden - wie Abb. 1c belegt - beispielsweise durch Zugabe von […] (-)-(1R,5R,9R)-N-(2-Furylmethyl)-5,9-dimethyl-2′- hydroxy-6,7-benzomorphan gehemmt.

With `C[C@H]1[C@H]2Cc3ccc(O)cc3[C@]1(C)CCN2Cc1ccco1` [(-)-(1R,5R,9R)-N-(2-Furylmethyl)-5,9-dimethyl-2′-hydroxy-6,7-benzomorphan] the “multiple epileptische Entladungen” value was “gehemmt”.
